Experimental data from patent publication US20100267712A1, “ISOINDOLINE COMPOUNDS FOR THE TREATMENT OF SPINAL MUSCULAR ATROPHY AND OTHER USES” (The United States of America, as represented by the …, priority 2007, published 2010).

System: SMN2-linked luciferase-reporter gene construct
Assay: SMN Splice Reporter Assay (SMN2-linked luciferase reporter)
Assay type: cell-based
Settings: for EC50: cervical carcinoma cell lines, SMN2 splice luciferase reporter; for Fold Increase: fold-increase of luciferase over baseline reading of transformed cells without any test compound
Source text: As previously discussed, SMN1 is the gene deleted in SMA patients; the SMN2 gene remains intact in both SMA and normal patients. Therefore, SMN2 provides a potential means of increasing SMN production in SMA patients and is, thus, a target for developing SMA treatments. SMN2 is identical to SMN1 with the exception of a single base pair change that results in reduced expression of the gene. The reduction is based on the creation of an alternatively spliced RNA that produces an unstable protein carrying a deletion of exon 7. Both full length SMN and exon 7 deleted SMN are produced by the SMN2 gene via alternative RNA splicing, but the major product is the unstable deleted form.
Cervical carcinoma cell lines were transformed with a SMN2-linked luciferase-reporter gene construct. The reporter is designed to detect shifts in the alternative splicing of SMN2 sequences. In particular, the reporter is constructed as a fusion of the alternatively spliced sequences of the SMN2 gene and the luciferase gene. Luciferase sequences are in the correct translational reading frame only when the SMN2 sequences are spliced according to the normal SMN1 mechanism (e.g., splicing to include exon 7), which allows for translation of the stable SMN protein. Compounds were tested in the assay by administering the compound to the cell line and detecting an increase in the luciferase activity. The assay is described in greater detail in Zhang et al., Gene Ther., 8: 1532-8 (2001). Compounds were administered as described in Lunn et al, Chem. & Biol, 11: 1489-1493 (2004).
The results are reported as a fold-increase over a baseline reading of transformed cells without any test compound. The EC50 value also is reported in Table 1 for some exemplary compounds of the invention.

| Structure (SMILES) | EC50 [nM] | Fold Increase |
| --- | --- | --- |
| O=C1c2ccccc2CN1c1ccc(Br)cn1 [Example 112648] | 456 | 1.264 |
| O=C1c2ccccc2CN1c1ccc(Br)nc1 [Example 112649] | 18200 | 1.373 |
| CC(C)(C)OC(=O)Cc1ccc(N2Cc3ccccc3C2=O)nc1 [Example 112719] | 6580 | 1.324 |
| COC(=O)C1CCc2cc(N3Cc4ccccc4C3=O)ccc21 (centres unmarked) [Example 113487] | 143 | 1.259 |
| O=C(O)C1CCc2cc(N3Cc4ccccc4C3=O)ccc21 (centres unmarked) [Example 113488] | – | 1.24 |
| O=C1c2ccccc2CN1c1ccc2c(c1)CCC2 [Example 116070] | 67 | 1.445 |
| O=C1c2ccccc2CN1c1ccc2c(c1)OCO2 [Example 116238] | 2450 | 1.235 |
| COc1ccc2c(c1)C(=O)N(c1ccc3c(c1)CCC3)C2 [Example 116241] | 98 | 1.512 |
| COc1ccc2c(c1)C(=O)N(c1ccc3c(c1)OCO3)C2 [Example 116360] | – | 1.282 |
| O=C1c2ccccc2CN1c1ccc2c(c1)OC(F)(F)O2 [Example 116485] | 2240 | 1.202 |
| COc1ccc2c(c1)C(=O)N(c1ccc3c(c1)OC(F)(F)O3)C2 [Example 116565] | 519 | 1.3 |
| Cc1ccc(N2Cc3cc4c(cc3C2=O)OCCO4)nc1 [Example 118418] | 63 | 1.496 |
| COc1ccc2c(c1)C(=O)N(c1ccc(C)cn1)C2 [Example 118553] | 166 | 1.308 |
| Cc1ccc(N2Cc3cc4c(cc3C2=O)OCCO4)cn1 [Example 118554] | 708 | 1.364 |
| COc1ccc2c(c1)C(=O)N(c1ccc3ccn(C)c3c1)C2 [Example 118561] | 143 | 1.74 |
| COc1ccc2c(c1)C(=O)N(c1ccc(C)nc1)C2 [Example 118735] | – | 1.149 |
| O=C1c2cc3c(cc2CN1c1ccc(Br)cn1)OCCO3 [Example 118736] | 137 | 1.413 |
| COc1ccc2c(c1)C(=O)N(c1ccc(Br)cn1)C2 [Example 118737] | 415 | 1.358 |
| O=C1c2cc3c(cc2CN1c1ccc2sccc2c1)OCCO3 [Example 118900] | 66 | 1.399 |
| Cn1ccc2ccc(N3Cc4cc5c(cc4C3=O)OCCO5)cc21 [Example 118902] | 29 | 1.774 |
| O=C1c2cc3c(cc2CN1c1ccc2ccoc2c1)OCCO3 [Example 118903] | 6 | 1.458 |
| O=C1c2cc(OC(F)F)ccc2CN1c1ccc2c(c1)CCC2 [Example 119337] | 157 | 1.66 |
| COc1ccc2c(c1)C(=O)N(c1ccc3c(c1)NC(=O)CO3)C2 [Example 119516] | – | 1.182 |

| Structure (SMILES) | EC50 [nM] | Fold Increase |
| --- | --- | --- |
| CCCn1ccc2cc(N3Cc4ccc(OC)cc4C3=O)ccc21 [Example 119517] | 439 | 1.59 |
| COc1ccc2c(c1)C(=O)N(c1ccc3sccc3c1)C2 [Example 119519] | 31 | 1.666 |
| CC=Cc1ccc2c(c1)C(=O)N(c1ccc3c(ccn3C)c1)C2 [Example 119520] | 45 | 1.54 |
| COc1ccc2c(c1)C(=O)N(c1ccc(C(C)C)cn1)C2 [Example 119654] | 235 | 1.44 |
| COc1ccc2c(c1)C(=O)N(c1ccc(C(C)C)nc1)C2 [Example 119655] | 491 | 1.372 |
| COc1ccc2c(c1)C(=O)N(c1ccc3c(c1)OCC(=O)N3)C2 [Example 119656] | 78 | 1.375 |
| COc1ccc2c(c1)C(=O)N(c1ccc3[nH]ccc3c1)C2 [Example 119657] | – | 1.21 |
| CN(C)c1ccc2c(c1)C(=O)N(c1ccc3c(c1)CCN3C)C2 [Example 119660] | – | 1.074 |
| COc1cccc2c1CN(c1ccc3c(ccn3C)c1)C2=O [Example 119865] | 842 | 1.444 |
| COc1ccc2c(c1)C(=O)N(c1ccc3nc[nH]c3c1)C2 [Example 119866] | 421 | 1.313 |
| CCCn1ccc2ccc(N3Cc4ccc(OC)cc4C3=O)cc21 [Example 119868] | 2280 | 1.582 |
| COc1ccc2c(c1)CN(c1ccc3ccn(C)c3c1)C2=O [Example 119870] | 242 | 1.83 |
| Cn1ccc2ccc(N3Cc4ccc(Br)cc4C3=O)cc21 [Example 120117] | 829 | 1.519 |
| Cn1ccc2ccc(N3Cc4cc(Br)ccc4C3=O)cc21 [Example 120118] | 453 | 1.893 |
| Cn1ccc2cc(N3Cc4c(N)cccc4C3=O)ccc21 [Example 120120] | – | 1.094 |
| COc1cccc2c1CN(c1ccc3ccn(C)c3c1)C2=O [Example 120123] | 1100 | 1.966 |
| COc1cccc2c1C(=O)N(c1ccc3ccn(C)c3c1)C2 [Example 120124] | – | 1.17 |
| COc1cccc2c1C(=O)N(c1ccc3c(ccn3C)c1)C2 [Example 120125] | 540 | 1.332 |
| Cc1cccc2c1C(=O)N(c1ccc3c(ccn3C)c1)C2 [Example 120278] | 161 | 1.502 |
| Cc1cccc2c1C(=O)N(c1ccc3ccn(C)c3c1)C2 [Example 120279] | 242 | 1.784 |
| Cn1ccc2cc(N3Cc4cccc(Br)c4C3=O)ccc21 [Example 120280] | 455 | 1.527 |
| Cn1ccc2ccc(N3Cc4cccc(Br)c4C3=O)cc21 [Example 120281] | 397 | 1.788 |
| Cn1ccc2ccc(N3Cc4cccc([N+](=O)[O-])c4C3=O)cc21 [Example 120282] | 737 | 1.291 |

| Structure (SMILES) | EC50 [nM] | Fold Increase |
| --- | --- | --- |
| COc1ccc2c(c1)C(=O)N(c1ccc3ccn(C(C)C)c3c1)C2 [Example 120283] | – | 1.273 |
| COCCn1ccc2ccc(N3Cc4ccc(OC)cc4C3=O)cc21 [Example 120284] | 7870 | 1.19 |
| Cn1ccc2cc(N3Cc4ccccc4C3=O)ccc21 [Example 120287] | 158 | 1.433 |
| Cn1ccc2cc(N3Cc4ccc(-c5ccccc5)cc4C3=O)ccc21 [Example 120288] | 408 | 1.364 |
| Cn1ccc2cc(N3Cc4c(Br)cccc4C3=O)ccc21 [Example 120289] | 1030 | 1.39 |
| Cn1ccc2ccc(N3Cc4c(Br)cccc4C3=O)cc21 [Example 120290] | 609 | 1.386 |
| COc1ccc2c(c1)C(=O)N(c1ccc3c(c1)ncn3C)C2 [Example 120291] | 111 | 1.362 |
| Cn1ccc2cc(N3Cc4cccc(N)c4C3=O)ccc21 [Example 120427] | 294 | 1.606 |
| Cn1ccc2cc(N3Cc4cccc([N+](=O)[O-])c4C3=O)ccc21 [Example 120428] | 338 | 1.262 |
| Cn1ccc2ccc(N3Cc4cccc(N)c4C3=O)cc21 [Example 120429] | 152 | 1.745 |
| COCn1ccc2ccc(N3Cc4ccc(Br)cc4C3=O)cc21 [Example 120430] | 306 | 1.374 |
| COCn1ccc2ccc(N3Cc4ccc(OC)cc4C3=O)cc21 [Example 120431] | 120 | 1.311 |
| COc1ccc2c(c1)C(=O)N(c1ccc3c(c1)n(C)c(=O)n3C)C2 [Example 120432] | 830 | 1.234 |
| COc1ccc2c(c1)C(=O)N(c1ccc3[nH]c(=O)[nH]c3c1)C2 [Example 120433] | 977 | 1.296 |
| Cc1ccc2c(c1)CN(c1ccc3ccn(C)c3c1)C2=O [Example 120434] | 54 | 1.708 |
| Cn1ccc2ccc(N3Cc4ccccc4C3=O)cc21 [Example 120435] | 640 | 1.585 |
| Cn1ccc2ccc(N3Cc4ccc(OC(F)F)cc4C3=O)cc21 [Example 120591] | 509 | 1.709 |
| Cn1ccc2cc(N3Cc4cc(Br)ccc4C3=O)ccc21 [Example 120592] | 112 | 1.51 |
| COc1ccc2c(c1)C(=O)N(c1ccc3sc(C)nc3c1)C2 [Example 120593] | 14 | 1.322 |
| COc1ccc2c(c1)C(=O)N(c1ccc3c(c1)c(C)c(C)n3C)C2 [Example 120597] | 777 | 1.434 |
| COc1ccc2c(c1)C(=O)N(c1ccc3ncn(C)c3c1)C2 [Example 120598] | 183 | 1.552 |
